One test has as its system MKN-45. Put plainly: cell viability / antiproliferative activity (WST-8), MKN-45 cells. The class given is cell-based. The conditions noted are these: Homo sapiens; MKN-45 gastric cancer cells; 72 hours. A general note: Tetrazolium dyes change colour on reduction, which living cells bring about.
Test [1] deals with c-MET. Put plainly: c-MET protein degradation (Simple Western), MKN-45 cells. The format is cell-based, human. The settings on record: MKN-45 gastric cancer cells, c-MET overexpressing; 24 hours. A digest of the protocol:
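Cells at 2×10^5 cells/well exposed to compound for 24 h (gastric lines) or 48 h (lung lines). Lysates (3 μg protein) probed for c-MET by capillary Simple Western, normalized to GAPDH and expressed as % of 0.1% DMSO control. DC50 is the concentration giving 50% protein reduction.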

Test [2] has as its system c-MET. Put plainly: c-MET protein degradation (Simple Western), SNU-638 cells. The class given is cell-based, human. The conditions noted are these: SNU-638 gastric cancer cells, c-MET overexpressing; 24 hours. As to the method:
(§1) In order to assess the resolution of the compound of the present invention for c-MET expressed in cells, cells were dispensed in a 12-well plate at a concentration of 2×10^5 cells/well, and then gastric cancer cell lines were treated with samples for 24 hours and lung cancer cell lines were treated for 48 hours. Cell lysates were collected using a scraper on ice, centrifuged at 4° C. 15,000 rpm for 30 min to obtain a protein-containing supernatant. Protein expression was then measured using the Simple Western Automated Western Blot System Abby instrument using 3 μg of protein for each sample. SDS and heat-induced denaturation proteins were separated by molecular weight, attached to capillary, reacted with anti-c-MET or anti-GAPDH antibodies, which are primary antibodies, and then reacted with HRP-conjugated secondary antibodies, and analyzed the protein expression signal with compass software. Protein expression was normalized based on the expression value of GAPDH, and protein development in each sample was measured as a percentage (%) based on 100% of samples treated with 0.1% DMSO carriers, and DC50 (concentration of a compound where 50% protein inhibition is achieved) was calculated from the change in protein expression amount due to compound treatment.

In test [3] the test system is c-MET. Put plainly: c-MET protein degradation (Simple Western), EBC-1 cells. The format is cell-based, human. The conditions noted are these: EBC-1 lung cancer cells, c-MET overexpressing; 48 hours. As to the method: as §1

A value given as a limit tells only on which side of the number the result lay.

As a reminder, the IC50 is the concentration at which inhibition is half-maximal. A low value points to greater potency. The term DC50 denotes the concentration at which degradation of the target reaches its halfway point. Low values mean degradation at low concentration, high ones degradation only at high concentration.

In the test with MKN-45, `Cn1cc(-c2cnc3c(nnn3C[C@@H]3CN(c4ncc(-c5ccc(CN6CCN(C(=O)COCCOCCNc7ccc8c(=O)n(C9CCC(=O)NC9=O)ncc8c7)CC6)cc5)cn4)CCO3)n2)cn1` (stereo partly drawn) [ICT-0000935] yielded an IC50 of 100 to 1000 nM. The DC50 in the test on c-MET [1] was 100 to 1000 nM.
Take `N#Cc1cccc(C2=NC(Cc3cccc(-c4ncc(OCC5CCN(CC(=O)N6CCN(CC7CCN(c8ccc9c(=O)n(C%10C=CC(=O)NC%10=O)ncc9c8)CC7)CC6)CC5)cn4)c3)C(=O)C=C2)c1` (stereo not drawn) [ICT-0000975]: the IC50 with MKN-45 is less than 100 nM. Also, the DC50 in the test on c-MET [1] lay within 100 to 1000 nM.
Taken in the same sequence, the figures for `Cn1cc(-c2cnc3c(nnn3CC3CN(c4ncc(-c5ccc(CN6CCC(CN7CCN(c8ccc9c(=O)n(C%10CCC(=O)NC%10=O)ncc9c8)CC7)CC6)cc5)cn4)CCO3)n2)cn1` [ICT-0000978, 3-(6-(4-((1-(4-(2-((S)-2-((5-(1-methyl-1H-pyrazole-4-yl)-1H-[1,2,3]triazolo[4,5-b]pyrazine-1-yl)methyl)morpholino)pyrimidine-5-il)benzyl)piperidine-4-il)methyl)piperazine-1-yl)1-oxopthalazine-2(1H)-yl)piperidine-2,6-dione] were less than 100 nM and 100 to 1000 nM.
For the molecule `Cc1nn(C2CCC(=O)NC2=O)c(=O)c2c(NCC(=O)N3CCC(CN4CCC(COc5cnc(-c6cccc(Cn7nc(-c8cccc(C#N)c8)ccc7=O)c6)nc5)CC4)CC3)cccc12` (stereo not drawn) [ICT-0000980], the results for the DC50 in the test with c-MET [2] and with c-MET [1] were more than 1000 nM and less than 100 nM, respectively.
The molecule `Cc1nn(C2CCC(=O)NC2=O)c(=O)c2ccc(NCCOCCOCCOCC(=O)N3CCC(COc4cnc(-c5cccc(Cn6nc(-c7cccc(C#N)c7)ccc6=O)c5)nc4)CC3)cc12` (stereo not drawn) [ICT-0001088] registered an IC50 with MKN-45 of 100 to 1000 nM. Further, the DC50 in the test on c-MET [1] is less than 100 nM.
The matching figures for `Cc1nn(C2CCC(=O)NC2=O)c(=O)c2ccc(NCCOCCOCCOCCOCC(=O)N3CCC(COc4cnc(-c5cccc(Cn6nc(-c7cccc(C#N)c7)ccc6=O)c5)nc4)CC3)cc12` (stereo not drawn) [ICT-0001089, 3-(1-(3-(5-((1-(14-((2-(2,6-dioxopiperidine-3-yl)-4-methyl-1-oxo-1,2-dihydrophthalazine-6-yl)amino)3,6,9,12-tetratetradecanoyl)piperidine-4-yl)methoxy)pyrimidin-2-yl)benzyl)6-oxo-1,6-dihydropyridazine-3-yl)benzonitrile]: 100 to 1000 nM and 100 to 1000 nM.
On to `Cc1nn(C2CCC(=O)NC2=O)c(=O)c2ccc(N3CCN(C(=O)C4CCN(CC(=O)N5CCC(COc6cnc(-c7cccc(Cn8nc(-c9cccc(C#N)c9)ccc8=O)c7)nc6)CC5)CC4)CC3)cc12` (stereo not drawn) [ICT-0001218], for which the DC50 in the test on c-MET [2] and with c-MET [1] was less than 100 nM throughout.
Molecule `Cc1nn(C2CCC(=O)NC2=O)c(=O)c2cc(N3CCN(CC4CCN(C(=O)CN5CCC(COc6cnc(-c7cccc(Cn8nc(-c9cccc(C#N)c9)ccc8=O)c7)nc6)CC5)CC4)CC3)c(F)cc12` (stereo not drawn) [ICT-0001231, 3-(1-(3-(5-((1-(2-(4-(4-(4-(3-(2,6-dioxopiperidine-3-yl)-7-fluoro-1-methyl-4-oxo-3,4-dihydrophthalazine-6-yl)piperazine-1-il)methyl)piperidine-1-il)-2-oxoethyl)piperidine-4-yl)methoxy)pyrimidine-2-yl)benzyl)6-oxo-1,6-dihydropyridazine-3-yl)benzonitrile] registered an IC50 with MKN-45 of less than 100 nM.
Regarding `N#Cc1cccc(-c2ccc(=O)n(Cc3cccc(-c4ncc(OCC5CCN(CC(=O)N6CC(N7CCN(c8ccc9c(=O)n(C%10CCC(=O)NC%10=O)ncc9c8)CC7)C6)CC5)cn4)c3)n2)c1` (stereo not drawn) [ICT-0001232], the DC50 with c-MET [2], with c-MET [3] and in the test on c-MET [1] was less than 100 nM each time.
With `Cc1nn(C2CCC(=O)NC2=O)c(=O)c2ccc(N3CCN(C(=O)C4CN(CC(=O)N5CCC(COc6cnc(-c7cccc(Cn8nc(-c9cccc(C#N)c9)ccc8=O)c7)nc6)CC5)C4)CC3)cc12` (stereo not drawn) [ICT-0001257], the DC50 in the test with c-MET [3] was 100 to 1000 nM; with c-MET [1], less than 100 nM.
Consider `N#Cc1cccc(-c2ccc(=O)n(Cc3cccc(-c4ncc(OCC5CCN(CCN6CCN(c7ccc8c(=O)n(C9CCC(=O)NC9=O)ncc8c7)CC6)CC5)cn4)c3)n2)c1` (stereo not drawn) [ICT-0001276, 3-(1-{[3-(5-{[1-(2-{4-[2-(2,6-dioxopiperidin-3-yl)-1-oxo-1,2-dihydropetalazine-6-yl]piperazine-1-il}ethyl)piperidine-4-il]methoxy}pyrimidine-2-yl)phenyl]methyl}-6-oxo-1,6-dihydropyridazine-3-yl)benzonitrile], for which the 50% degradation concentration (DC50) with c-MET [3] was more than 1000 nM; with c-MET [1], less than 100 nM.
The matching figures for `Cc1nn(C2CCC(=O)NC2=O)c(=O)c2cc(N3CCN(CCN4CCC(COc5cnc(-c6cccc(Cn7nc(-c8cccc(C#N)c8)ccc7=O)c6)nc5)CC4)CC3)ccc12` (stereo not drawn) [ICT-0001278, 3-(1-{[3-(5-{[1-(2-{4-[3-(2,6-dioxopiperidin-3-yl)-1-methyl-4-oxo-3,4-dihydropthalazine-6-yl]piperazine-1-yl}ethyl)piperidine-4-day]methoxy}pyrimidine-2-yl)phenyl]methyl}6-oxo-1,6-dihydropyridazine-3-yl)benzonitrile]: more than 1000 nM and 100 to 1000 nM.
The molecule `Cc1nn(C2CCC(=O)NC2=O)c(=O)c2ccc(N3CCN(C4CN(CCN5CCC(COc6cnc(-c7cccc(Cn8nc(-c9cccc(C#N)c9)ccc8=O)c7)nc6)CC5)C4)CC3)cc12` (stereo not drawn) [ICT-0001325] registered a DC50 with c-MET [2] of more than 1000 nM.
Turning to `Cc1nn(C2CCC(=O)NC2=O)c(=O)c2cc(N3CCN(CC4CCN(CCN5CCC(COc6cnc(-c7cccc(Cn8nc(-c9cccc(C#N)c9)ccc8=O)c7)nc6)CC5)CC4)CC3)c(F)cc12` (stereo not drawn) [ICT-0001326], the DC50 in the test on c-MET [2] is more than 1000 nM.
Turning to `N#Cc1cccc(-c2ccc(=O)n(Cc3cccc(-c4ncc(OCC5CCN(c6ccc(NC7CCC(=O)NC7=O)cc6F)CC5)cn4)c3)n2)c1` (stereo not drawn) [ICT-0001383], the DC50 in the test on c-MET [2] and in the test with c-MET [3] was less than 100 nM throughout.
With `N#Cc1cccc(-c2ccc(=O)n(Cc3cccc(-c4ncc(OCC5CCN(CCN6CCN(c7ccc(NC8CCC(=O)NC8=O)cc7F)CC6)CC5)cn4)c3)n2)c1` (stereo not drawn) [ICT-0001433, 3-(1-(3-(5-((1-(1-(2-(4-((2,6-dioxopiperidine-3-yl)amino)-2-fluorophenyl)piperazine-1-il)ethyl)piperidine-4-il)methoxy)pyrimidine-2-yl)benzyl)6-oxo-1,6-dihydropyridazine-3-yl)benzonitrile], the 50% degradation concentration (DC50) in the test on c-MET [2] and in the test with c-MET [3] was less than 100 nM each time.
Consider `N#Cc1cccc(-c2ccc(=O)n(Cc3cccc(-c4ncc(-c5cccc(CN6CCN(c7ccc(NC8CCC(=O)NC8=O)cc7F)CC6)c5)cn4)c3)n2)c1` (stereo not drawn) [ICT-0001434], for which the DC50 in the test on c-MET [2] is more than 1000 nM; in the test on c-MET [3] it was less than 100 nM.
Turning to `Cn1cc(-c2cnc3c(nnn3C[C@@H]3CN(c4ncc(-c5ccc(CN6CCN(CC(=O)N7CCN(c8ccc(NC9CCC(=O)NC9=O)cc8F)CC7)CC6)cc5)cn4)CCO3)n2)cn1` (stereo partly drawn) [ICT-0001439], the DC50 in the test with c-MET [2] and with c-MET [3] was less than 100 nM each time.
For the molecule `N#Cc1cccc(-c2ccc(=O)n(Cc3cccc(-c4ncc(OCC5CCN(CC(=O)N6CCC(CN7CCN(c8ccc(NC9CCC(=O)NC9=O)cc8F)CC7)CC6)CC5)cn4)c3)n2)c1` (stereo not drawn) [ICT-0001447, 3-(1-{[3-(5-{[1-(2-{4-[(4-{4-[(2,6-dioxopiperidin-3-yl)amino]-2-fluorophenyl}piperazine-1-yl)methyl]piperidine-1-yl}-2-oxoethyl)piperidine-4-yl]methoxy}pyrimidine-2-yl)phenyl]methyl}-6-oxo-1,6-dihydropyridazine-3-yl)benzonitrile], the DC50 with c-MET [3] is less than 100 nM.
Turning to `N#Cc1cccc(-c2ccc(=O)n(Cc3cccc(-c4ncc(-c5cccc(CN6CCN(c7ccc(C8CCC(=O)NC8=O)cn7)CC6)c5)cn4)c3)n2)c1` (stereo not drawn) [ICT-0001449], the DC50 was more than 1000 nM in the test with c-MET [2] and less than 100 nM with c-MET [3].
As to `N#Cc1cccc(-c2ccc(=O)n(Cc3cccc(-c4ncc(-c5cccc(CN6CCC(CN7CCN(c8ccc(NC9CCC(=O)NC9=O)cc8F)CC7)CC6)c5)cn4)c3)n2)c1` (stereo not drawn) [ICT-0001450], the DC50 in the test with c-MET [2] is 100 to 1000 nM; in the test on c-MET [3] it was less than 100 nM.
`N#Cc1cccc(-c2ccc(=O)n(Cc3cccc(-c4ncc(OCC5CCN(CC(=O)N6CCN(CC7CCN(c8ccc(NC9CCC(=O)NC9=O)cc8F)CC7)CC6)CC5)cn4)c3)n2)c1` (stereo not drawn) [ICT-0001468, 3-(1-{[3-(5-{[1-(2-{4-[(1-{4-[(2,6-dioxopiperidin-3-yl)amino]-2-fluorophenyl}piperidine-4-yl)methyl]piperazine-1-yl}-2-oxoethyl)piperidine-4-yl]methoxy}pyrimidine-2-yl)phenyl]methyl}-6-oxo-1,6-dihydropyridazine-3-yl)benzonitrile] returned a DC50 in the test with c-MET [3] of less than 100 nM.
For `N#Cc1cccc(-c2ccc(=O)n(Cc3cccc(-c4ncc(OCC5CCN(C(=O)CN6CCN(c7ccc(NC8CCC(=O)NC8=O)cc7F)CC6)CC5)cn4)c3)n2)c1` (stereo not drawn) [ICT-0001494], the half-maximal degradation concentration (DC50) in the test with c-MET [2] and in the test with c-MET [3] was less than 100 nM throughout.

For the origin of these results see patent US20260306639A1, “DEGRADER FOR DECOMPOSING CMET PROTEIN, AND PHARMACEUTICAL COMPOSITION COMPRISING SAME” (INNOCURE THERAPEUTICS, INC., priority 2022, published 2026).
